Target: T1, GST-tagged ROR gamma ligand binding domain (LBD) (Homo sapiens, UniProt P51449)
T1 construct: purchased Invitrogen
T1 sequence (P51449 269-508 limits assumed): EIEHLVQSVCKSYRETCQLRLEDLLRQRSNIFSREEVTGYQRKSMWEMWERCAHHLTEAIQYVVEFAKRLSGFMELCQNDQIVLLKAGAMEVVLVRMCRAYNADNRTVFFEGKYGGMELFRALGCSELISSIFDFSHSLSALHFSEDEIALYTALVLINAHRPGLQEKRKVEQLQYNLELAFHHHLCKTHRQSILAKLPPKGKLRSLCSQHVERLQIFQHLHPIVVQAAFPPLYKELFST
Test: TR-FRET assay for ROR gamma (LanthaScreen co-activator peptide recruitment)
Assay type: biochemical
Conditions: for IC50: class symbols, from dose response curve; for inhibition at 1 µM: compound 1 μM; for inhibition at 1 µM / inhibition at 10 µM: TR-FRET ratio 520/495, percent of control; for inhibition at 10 µM: compound 10 μM
Excerpt: The compounds described herein were screened for ROR gamma modulator activity using the TR-FRET assay by Lantha Screen as described in JBC 2011, 286, 26: 22707-10; and Drug Metabolism and Disposition 2009, 37, 10: 2069-78.
The assay is based on the principle that binding of the agonist to the ROR gamma causes a conformational change around helix 12 in the ligand binding domain, resulting in higher affinity for the co-activator peptide. ROR gamma being constitutively active, the Fluorescein-D22 co-activator peptide used in the assay is recruited in the absence of a ligand. Binding of the co-activator peptide, causes an increase in the TR-FRET signal while binding of an antagonist decreases the recruitment of the co-activator peptide, causing a decrease in the TR-FRET signal compared to control with no compound. The assay was performed using a two-step procedure, pre-incubation step with the compound followed by the detection step on addition of the anti-GST tagged terbium (Tb) and fluorescein tagged fluorophores as the acceptor.
Test compounds or reference compounds such as T0901317 (Calbiochem) were dissolved in dimethylsulfoxide (DMSO) to prepare 10.0 mM stock solutions and diluted to the desired concentration. The final concentration of DMSO in the reaction was 4% (v/v). The assay mixture was prepared by mixing 10 nM of the GST-tagged ROR gamma ligand binding domain (LBD) in the assay buffer containing 25 mM HEPES (pH 7.4), 100 mM NaCl, 5 mM DTT and 0.01% BSA with or without the desired concentration of the compound. The reaction was incubated at 22° C. for 1 hour. The pre-incubation step was terminated by addition of the detection mixture containing 300 nM Fluorescein-D22 co-activator peptide and 10 nM lantha screen Tb-anti GST antibody into the reaction mixture. After shaking for 5 minutes the reaction was further incubated for 1 hour at room temperature and read at 4° C. on an Infinite F500 reader as per the kit instructions (Invitrogen). The inhibition of test compound was calculated based on the TR-FRET ratio of 520/495. The activity was calculated as a percent of control reaction. IC50 values were calculated from dose response curve by nonlinear regression analysis using GraphPad Prism software.
Percentage inhibition at concentrations of 1.0 μM and 10.0 μM are given in the table along with IC50 (nM) details for selected examples.

| SMILES | IC50 [nM] | inhibition at 1 µM [%] | inhibition at 10 µM [%] |
| --- | --- | --- | --- |
| CCS(=O)(=O)c1ccc(CC(=O)Nc2ccc(OC3(c4ccc(Cl)c(Cl)c4)CC3)cc2)cc1 [Example 49, N-{4-[1-(3,4-Dichloro-phenyl)-cyclopropoxy]-phenyl}-2-(4-ethanesulfonyl-phenyl)-acetamide] | 50 to 100 | 69.1 | 80 |
| CCn1c(C(C)(C)Oc2ccc(Cl)cc2Cl)nc2cc(NC(=O)Cc3ccc(S(=O)(=O)CC)cc3)ccc21 [Example 144, N-(2-(2-(2,4-Dichlorophenoxy)propan-2-yl)-1-ethyl-1H-benzo[d]imidazol-5-yl)-2-(4-(ethylsulfonyl)phenyl)acetamide] | < 50 | 90.6 | 92.5 |
| CCS(=O)(=O)c1ccc(CC(=O)Nc2ccc(C#CC(C)(C)Oc3cc(F)c(F)cc3F)cc2)cc1 [Example 74, 2-(4-Ethanesulfonyl-phenyl)-N-{4-[3-methyl-3-(2,4,5-trifluoro-phenoxy)-but-1-yn-1-yl]-phenyl}-acetamide] | < 50 | 73.6 | 78.8 |
| CCn1c(C(C)(C)Oc2ccc(NC(=O)Cc3ccc(S(=O)(=O)CC)cc3)cc2)nc2ccc(Cl)cc21 [Example 17, N-(4-{[2-(6-Chloro-1-ethyl-1H-benzimidazol-2-yl)propan-2-yl]oxy}phenyl)-2-[4-(ethylsulfonyl)phenyl]acetamide] | < 50 | 88.7 | 94.3 |
| CCS(=O)(=O)c1ccc(CC(=O)Nc2ccc(OC3(c4ccc(Cl)cc4)CCOCC3)cc2)cc1 [Example 37, N-{4-[4-(4-Chlorophenyl)-tetrahydro-pyran-4-yloxy]-phenyl}-2-(4-ethanesulfonyl-phenyl)-acetamide] | > 100 | 80.8 | 83.2 |
| CCS(=O)(=O)c1ccc(CC(=O)Nc2ccc(OC3(c4ccc(Cl)c(F)c4)CC3)cc2)cc1 [Example 50, N-{4-[1-(4-Chloro-3-fluoro-phenyl)-cyclopropoxy]-phenyl}-2-(4-ethanesulfonyl-phenyl)-acetamide] | < 50 | 81.3 | 87.9 |
| CCS(=O)(=O)c1ccc(CC(=O)Nc2ccc(OC3(c4ccc(Cl)cc4Cl)CCCCC3)c(F)c2)cc1 [Example 135, N-(4-((1-(2,4-Dichlorophenyl)cyclohexyl)oxy)-3-fluorophenyl)-2-(4-(ethylsulfonyl)phenyl)acetamide] | 50 to 100 | 73.2 | 77 |
| CCS(=O)(=O)c1ccc(CC(=O)Nc2ccc(OC3(c4ccc(Cl)c(F)c4)CCCC3)cc2)cc1 [Example 120, N-{4-[1-(4-Chloro-3-fluorophenyl)-cyclopentyloxy]-phenyl}-2-(4-ethanesulfonyl-phenyl)-acetamide] | < 50 | 84.8 | 89.6 |
| CCS(=O)(=O)c1ccc(CC(=O)Nc2ccc3c(c2)nc(C(C)(C)Oc2ccc(C(F)(F)F)cc2)n3C)cc1 [Example 81, 2-[4-(Ethylsulfonyl)phenyl]-N-(1-methyl-2-{2-[4-(trifluoromethyl)phenoxy]propan-2-yl}-1H-benzimidazol-5-yl)acetamide] | > 100 | 76 | 88.9 |
| CCS(=O)(=O)c1ccc(CC(=O)Nc2ccc(OC(C)(C)c3nc4ccc(Cl)cc4n3C)cc2)cc1 [Example 18, N-{4-[1-(6-Chloro-1-methyl-1H-benzoimidazol-2-yl)-1-methyl-ethoxy]-phenyl}-2-(4-ethanesulfonyl-phenyl)-acetamide] | > 100 | 78.6 | 91 |
| CCC(CC)(Oc1ccc(NC(=O)Cc2ccc(S(=O)(=O)CC)cc2)cc1)c1ccc(Cl)c(F)c1 [Example 12, N-{4-[1-(4-Chloro-3-fluoro-phenyl)-1-ethyl-propoxy]-phenyl}-2-(4-ethanesulfonyl-phenyl)-acetamide] | 50 to 100 | 73.9 | 85.4 |
| CCS(=O)(=O)c1ccc(CC(=O)Nc2ccc(OC(C)(C)c3ccc(Cl)c(Cl)c3)nc2)cc1 [Example 59, N-{6-[1-(3,4-Dichloro-phenyl)-1-methyl-ethoxy]-pyridin-3-yl}-2-(4-ethanesulfonyl-phenyl)-acetamide] | < 50 | 71.8 | 86.7 |
| CCS(=O)(=O)c1ccc(CC(=O)Nc2ccc(OC(C)(C)c3ccc(Cl)c(F)c3)cc2)cc1 [Example 7, N-{4-[1-(4-Chloro-3-fluoro-phenyl)-1-methyl-ethoxy]-phenyl}-2-(4-ethanesulfonyl-phenyl)-acetamide] |  | 74.4 | 85.1 |
| CCS(=O)(=O)c1ccc(CC(=O)Nc2ccc(OC3(c4nnc5ccc(Cl)cn45)CCC3)cc2)cc1 [Example 27, N-{4-[1-(6-Chloro-[1,2,4]triazolo[4,3-a]pyridin-3-yl)-cyclobutoxy]-phenyl}-2-(4-ethanesulfonyl-phenyl)-acetamide] | 50 to 100 | 69.7 | 90 |
| CCn1c(C(C)(C)Oc2ccc(Cl)cc2F)nc2cc(NC(=O)Cc3ccc(S(=O)(=O)CC)cc3)ccc21 [Example 86, N-{2-[2-(4-Chloro-2-fluorophenoxy)propan-2-yl]-1-ethyl-1H-benzimidazol-5-yl}-2-[4-(ethylsulfonyl)phenyl]acetamide] | < 50 | 92.8 | 93.8 |
| CCn1c(C(C)(C)Oc2c(F)cc(F)cc2F)nc2cc(NC(=O)Cc3ccc(S(=O)(=O)CC)cc3)ccc21 [Example 90, 2-(4-Ethanesulfonyl-phenyl)-N-{1-ethyl-2-[1-methyl-1-(2,4,6-trifluoro-phenoxy)-ethyl]-1H-benzoimidazol-5-yl}-acetamide] | < 50 | 87.3 | 88.8 |
| CCS(=O)(=O)c1ccc(CC(=O)Nc2ccc(OC3(c4ccc(Cl)cc4Cl)CCOCC3)c(F)c2)cc1 [Example 136, N-(4-((4-(2,4-Dichlorophenyl)tetrahydro-2H-pyran-4-yl)oxy)-3-fluorophenyl)-2-(4-(ethylsulfonyl)phenyl)acetamide] | < 50 | 71.6 | 79.3 |
| CCn1c(C(C)(C)Oc2cc(F)ccc2F)nc2cc(NC(=O)Cc3ccc(S(=O)(=O)CC)cc3)ccc21 [Example 126, N-{2-[1-(2,5-Difluorophenoxy)-1-methylethyl]-1-ethyl-1H-benzoimidazol-5-yl}-2-(4-ethanesulfonylphenyl)-acetamide] | < 50 | 85.9 | 89.5 |
| CCS(=O)(=O)c1ccc(CC(=O)Nc2ccc(C#CCOc3ccc(Cl)c(Cl)c3)cc2)cc1 [Example 61, N-{4-[3-(3,4-Dichlorophenoxy)prop-1-yn-1-yl]phenyl}-2-[4-(ethylsulfonyl)phenyl]acetamide] | > 100 | 85.5 | 92.9 |
| CCn1c(C2(Oc3ccc(NC(=O)Cc4ccc(S(=O)(=O)CC)cc4)cc3)CC2)nc2cc(Cl)ccc21 [Example 24, N-{4-[1-(5-Chloro-1-ethyl-1H-benzoimidazol-2-yl)-cyclopropoxy]-phenyl}-2-(4-ethanesulfonyl-phenyl)-acetamide] | > 100 | 65.7 | 85.6 |
| CCS(=O)(=O)c1ccc(CC(=O)Nc2ccc(OC(C)(C)c3ccc(Cl)cc3F)nc2)cc1 [Example 56, N-{6-[1-(4-Chloro-2-fluoro-phenyl)-1-methyl-ethoxy]-pyridin-3-yl}-2-(4-ethanesulfonyl-phenyl)-acetamide] | < 50 | 83.1 | 91.3 |
| CCn1c(C(C)(C)Oc2ccc(F)cc2F)nc2cc(NC(=O)Cc3ccc(S(=O)(=O)CC)cc3)ccc21 [Example 88, N-{2-[1-(2,4-Difluoro-phenoxy)-1-methyl-ethyl]-1-ethyl-1H-benzoimidazol-5-yl}-2-(4-ethanesulfonyl-phenyl)-acetamide] | < 50 | 86.2 | 96.1 |

Source: patent publication US9718817B2, “Aryl and heteroaryl ether compounds as ROR gamma modulators” (Glenmark Pharmaceuticals S.A., priority 2014, dated 2017)
